Results reported in patent US20080063643A1, “Peptide Derived From Hepatitis C Virus” (priority 2003, published 2008).

Test system: peptide-specific IgG in the serum
Test: ELISA of peptide-specific IgG in sera of HCV patients and healthy donors (Example 1)
Type: binding, human
Conditions: ELISA, cut-off value 1.83; for Healthy donors (n = 10) Positive n: number of 10 healthy donors with serum IgG reactive to the peptide; for HCV patients (n = 12) Positive n: number of 12 HCV patients with serum IgG reactive to the peptide; for Healthy donors (n = 10) Positive %: share of 10 healthy donors with serum IgG reactive to the peptide; for HCV patients (n = 12) Positive %: share of 12 HCV patients with serum IgG reactive to the peptide
Protocol: Synthetic peptides having an HLA-A2-binding motif or an HLA-A24-binding motif from a conserved region of HCV genotype 1b protein were used in this study (Table 1). A peptide derived from HIV having an HLA-A2-binding motif was used as a negative control. All of these peptides were purchased from a commercially supplier. The purity was analyzed by reverse-phase high-pressure liquid chromatography and found to be 90% or higher.
The level of the peptide-specific IgG in the serum was measured by ELISA. First, each peptide was dissolved in dimethyl sulfoxide (DMSO) and stored at −80° C. The peptide was diluted with 0.1 M sodium carbonate/sodium bicarbonate solution containing disuccinimidyl suberate (DSS) as a crosslinker. An ELISA plate was coated with 20 μg/well of peptide at 4° C. overnight. The wells were washed 3 times with 0.05% Tween 20/PBS (PBST), and the plate was blocked with Block Ace (registered trademark) and left overnight at 4° C. Plasma or serum samples were diluted in 1:100, 1:200 and 1:400 with 0.05% Tween 20/Block Ace, and 100 μl of each of the samples was added to each well. After the samples were incubated at 37° C. for 2 hours, the plate was washed 9 times with PBST, 100 μl of a 1:1000 diluted rabbit anti-human IgG (γ-chain specific) was added to each well, and incubated at 37° C. for 2 hours. The plate was washed 9 times with PBST, and 100 μl of 1:100 diluted mouse anti-rabbit IgG conjugated to a horseradish peroxidase-dextran polymer was added to each well, and then the plate was incubated at room temperature for 40 minutes. After the plate was washed, 100 μl of a tetramethylbenzidine substrate solution was added to each well. The reaction was stopped by the addition of 2.0 M phosphoric acid. The cutoff value was calculated as the mean±3 SD of the optical density values of the control obtained from the healthy donors.
The level of IgG that reacts with each of the 62 types of peptides was measured in the sera from 12 patients infected with HCV and 10 healthy donors (HDs) (Table 1).

3 (RYAPACKPL; Hepatitis C Virus) [Peptide 3]
Healthy donors (n = 10) Positive n: 1
HCV patients (n = 12) Positive n: 12
Healthy donors (n = 10) Positive %: 10%
HCV patients (n = 12) Positive %: 100%

5 (HYAPRPCGI; Hepatitis C Virus) [Peptide 5]
Healthy donors (n = 10) Positive n: 0
HCV patients (n = 12) Positive n: 0
Healthy donors (n = 10) Positive %: 0%
HCV patients (n = 12) Positive %: 0%

6 (HYPCTVNFTI; Hepatitis C Virus) [Peptide 6]
Healthy donors (n = 10) Positive n: 0
HCV patients (n = 12) Positive n: 0
Healthy donors (n = 10) Positive %: 0%
HCV patients (n = 12) Positive %: 0%

8 (SFAIKWEYVL; Hepatitis C Virus) [Peptide 8]
Healthy donors (n = 10) Positive n: 0
HCV patients (n = 12) Positive n: 0
Healthy donors (n = 10) Positive %: 0%
HCV patients (n = 12) Positive %: 0%

9 (EYVLLLFLL; Hepatitis C Virus) [Peptide 9]
Healthy donors (n = 10) Positive n: 0
HCV patients (n = 12) Positive n: 0
Healthy donors (n = 10) Positive %: 0%
HCV patients (n = 12) Positive %: 0%

10 (AYALYGVWPL; Hepatitis C Virus) [Peptide 10]
Healthy donors (n = 10) Positive n: 0
HCV patients (n = 12) Positive n: 1
Healthy donors (n = 10) Positive %: 0%
HCV patients (n = 12) Positive %: 8%

11 (AYMSKAHGI; Hepatitis C Virus) [Peptide 11]
Healthy donors (n = 10) Positive n: 0
HCV patients (n = 12) Positive n: 6
Healthy donors (n = 10) Positive %: 0%
HCV patients (n = 12) Positive %: 50%

12 (HYAPRPCGI; Hepatitis C Virus) [Peptide 12]
Healthy donors (n = 10) Positive n: 0
HCV patients (n = 12) Positive n: 9
Healthy donors (n = 10) Positive %: 0%
HCV patients (n = 12) Positive %: 75%

13 (VYEAADMIM; Hepatitis C Virus) [Peptide 13]
Healthy donors (n = 10) Positive n: 0
HCV patients (n = 12) Positive n: 6
Healthy donors (n = 10) Positive %: 0%
HCV patients (n = 12) Positive %: 50%

15 (LFLARLIWWL; Hepatitis C Virus) [Peptide 15]
Healthy donors (n = 10) Positive n: 0
HCV patients (n = 12) Positive n: 0
Healthy donors (n = 10) Positive %: 0%
HCV patients (n = 12) Positive %: 0%

17 (QFKQKAIGL; Hepatitis C Virus) [Peptide 17]
Healthy donors (n = 10) Positive n: 0
HCV patients (n = 12) Positive n: 3
Healthy donors (n = 10) Positive %: 0%
HCV patients (n = 12) Positive %: 25%

19 (HYVQMALMKL; Hepatitis C Virus) [Peptide 19]
Healthy donors (n = 10) Positive n: 0
HCV patients (n = 12) Positive n: 1
Healthy donors (n = 10) Positive %: 0%
HCV patients (n = 12) Positive %: 8%

20 (TYVYDHLTPL; Hepatitis C Virus) [Peptide 20]
Healthy donors (n = 10) Positive n: 0
HCV patients (n = 12) Positive n: 0
Healthy donors (n = 10) Positive %: 0%
HCV patients (n = 12) Positive %: 0%

21 (HYVQMALMKL; Hepatitis C Virus) [Peptide 21]
Healthy donors (n = 10) Positive n: 0
HCV patients (n = 12) Positive n: 5
Healthy donors (n = 10) Positive %: 0%
HCV patients (n = 12) Positive %: 42%

22 (TYVYDHLTPL; Hepatitis C Virus) [Peptide 22]
Healthy donors (n = 10) Positive n: 0
HCV patients (n = 12) Positive n: 7
Healthy donors (n = 10) Positive %: 0%
HCV patients (n = 12) Positive %: 58%

23 (GYGAGVAGAL; Hepatitis C Virus) [Peptide 23]
Healthy donors (n = 10) Positive n: 0
HCV patients (n = 12) Positive n: 2
Healthy donors (n = 10) Positive %: 0%
HCV patients (n = 12) Positive %: 17%

24 (AYAAQGYKVL; Hepatitis C Virus) [Peptide 24]
Healthy donors (n = 10) Positive n: 0
HCV patients (n = 12) Positive n: 2
Healthy donors (n = 10) Positive %: 0%
HCV patients (n = 12) Positive %: 17%

25 (VYHGAGSKTL; Hepatitis C Virus) [Peptide 25]
Healthy donors (n = 10) Positive n: 0
HCV patients (n = 12) Positive n: 6
Healthy donors (n = 10) Positive %: 0%
HCV patients (n = 12) Positive %: 50%

26 (AYALYGVWPL; Hepatitis C Virus) [Peptide 26]
Healthy donors (n = 10) Positive n: 0
HCV patients (n = 12) Positive n: 2
Healthy donors (n = 10) Positive %: 0%
HCV patients (n = 12) Positive %: 17%

27 (HYPCTVNFTI; Hepatitis C Virus) [Peptide 27]
Healthy donors (n = 10) Positive n: 0
HCV patients (n = 12) Positive n: 4
Healthy donors (n = 10) Positive %: 0%
HCV patients (n = 12) Positive %: 33%

28 (YYRGLDVSVI; Hepatitis C Virus) [Peptide 28]
Healthy donors (n = 10) Positive n: 0
HCV patients (n = 12) Positive n: 2
Healthy donors (n = 10) Positive %: 0%
HCV patients (n = 12) Positive %: 17%

29 (TFLVGLNQYL; Hepatitis C Virus) [Peptide 29]
Healthy donors (n = 10) Positive n: 0
HCV patients (n = 12) Positive n: 2
Healthy donors (n = 10) Positive %: 0%
HCV patients (n = 12) Positive %: 17%

30 (VFVGLILLTL; Hepatitis C Virus) [Peptide 30]
Healthy donors (n = 10) Positive n: 0
HCV patients (n = 12) Positive n: 4
Healthy donors (n = 10) Positive %: 0%
HCV patients (n = 12) Positive %: 33%

32 (IFLLALLSCL; Hepatitis C Virus) [Peptide 32]
Healthy donors (n = 10) Positive n: 0
HCV patients (n = 12) Positive n: 7
Healthy donors (n = 10) Positive %: 0%
HCV patients (n = 12) Positive %: 58%

33 (NFISGIQYL; Hepatitis C Virus) [Peptide 33]
Healthy donors (n = 10) Positive n: 0
HCV patients (n = 12) Positive n: 0
Healthy donors (n = 10) Positive %: 0%
HCV patients (n = 12) Positive %: 0%

35 (AFTASITSPL; Hepatitis C Virus) [Peptide 35]
Healthy donors (n = 10) Positive n: 0
HCV patients (n = 12) Positive n: 0
Healthy donors (n = 10) Positive %: 0%
HCV patients (n = 12) Positive %: 0%

36 (GYGAGVAGAL; Hepatitis C Virus) [Peptide 36]
Healthy donors (n = 10) Positive n: 0
HCV patients (n = 12) Positive n: 1
Healthy donors (n = 10) Positive %: 0%
HCV patients (n = 12) Positive %: 8%

37 (DFKTWLQSKL; Hepatitis C Virus) [Peptide 37]
Healthy donors (n = 10) Positive n: 0
HCV patients (n = 12) Positive n: 1
Healthy donors (n = 10) Positive %: 0%
HCV patients (n = 12) Positive %: 8%

38 (SFSIFLLALL; Hepatitis C Virus) [Peptide 38]
Healthy donors (n = 10) Positive n: 0
HCV patients (n = 12) Positive n: 7
Healthy donors (n = 10) Positive %: 0%
HCV patients (n = 12) Positive %: 58%

40 (YLLPRRGPRL; Hepatitis C Virus) [Peptide 40]
Healthy donors (n = 10) Positive n: 0
HCV patients (n = 12) Positive n: 12
Healthy donors (n = 10) Positive %: 0%
HCV patients (n = 12) Positive %: 100%

41 (SYTWTGALI; Hepatitis C Virus) [Peptide 41]
Healthy donors (n = 10) Positive n: 0
HCV patients (n = 12) Positive n: 0
Healthy donors (n = 10) Positive %: 0%
HCV patients (n = 12) Positive %: 0%

42 (HYRDVLKEM; Hepatitis C Virus) [Peptide 42]
Healthy donors (n = 10) Positive n: 0
HCV patients (n = 12) Positive n: 1
Healthy donors (n = 10) Positive %: 0%
HCV patients (n = 12) Positive %: 8%

43 (ILHTPGCV; Hepatitis C Virus) [Peptide 43]
Healthy donors (n = 10) Positive n: 0
HCV patients (n = 12) Positive n: 3
Healthy donors (n = 10) Positive %: 0%
HCV patients (n = 12) Positive %: 25%

44 (WFMWCLLLL; Hepatitis C Virus) [Peptide 44]
Healthy donors (n = 10) Positive n: 0
HCV patients (n = 12) Positive n: 0
Healthy donors (n = 10) Positive %: 0%
HCV patients (n = 12) Positive %: 0%

45 (SLLAPGAKQNV; Hepatitis C Virus) [Peptide 45]
Healthy donors (n = 10) Positive n: 3
HCV patients (n = 12) Positive n: 0
Healthy donors (n = 10) Positive %: 30%
HCV patients (n = 12) Positive %: 0%

47 (LLCPAGHAV; Hepatitis C Virus) [Peptide 47]
Healthy donors (n = 10) Positive n: 2
HCV patients (n = 12) Positive n: 1
Healthy donors (n = 10) Positive %: 20%
HCV patients (n = 12) Positive %: 8%

52 (ILAGYGAGV; Hepatitis C Virus) [Peptide 52]
Healthy donors (n = 10) Positive n: 1
HCV patients (n = 12) Positive n: 0
Healthy donors (n = 10) Positive %: 10%
HCV patients (n = 12) Positive %: 0%

55 (GLQDCTMLV; Hepatitis C Virus) [Peptide 55]
Healthy donors (n = 10) Positive n: 1
HCV patients (n = 12) Positive n: 2
Healthy donors (n = 10) Positive %: 10%
HCV patients (n = 12) Positive %: 17%

56 (ALAHGVRAL; Hepatitis C Virus) [Peptide 56]
Healthy donors (n = 10) Positive n: 1
HCV patients (n = 12) Positive n: 0
Healthy donors (n = 10) Positive %: 10%
HCV patients (n = 12) Positive %: 0%
